Measurements reported in patent US20250026778A1 (TIUMBIO CO., LTD., priority 2021, published 2025).

Each compound was assayed against T1, his-galectin-3 (Homo sapiens, UniProt P17931) (assay: TR-FRET assay (in vitro galectin-3 binding inhibitory activity test)). Details: Table 2; compound at 20 μM; 60 nM his-galectin-3, 15 nM biotin-ASF; read-out: % Inhibitory activity (at 20 μM).
T1 construct: purchased Abcam
T1 sequence (P17931 whole entry): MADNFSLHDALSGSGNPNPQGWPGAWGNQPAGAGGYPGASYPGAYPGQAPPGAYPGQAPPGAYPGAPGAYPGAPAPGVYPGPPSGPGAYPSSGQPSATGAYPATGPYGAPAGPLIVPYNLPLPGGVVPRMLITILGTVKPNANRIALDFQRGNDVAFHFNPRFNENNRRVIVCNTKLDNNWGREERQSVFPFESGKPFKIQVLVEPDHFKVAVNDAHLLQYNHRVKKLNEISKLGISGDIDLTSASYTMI
Outline: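 Compound is premixed with his-galectin-3 (60 nM final), then biotin-ASF (15 nM), Tb anti-His antibody (2 nM) and streptavidin-d2 (20 nM) are added. After at least 3.5 hours at RT in HEPES/NaCl buffer with Tween 20 and BSA, TR-FRET is read at 615/665 nm. DMSO serves as the uninhibited control, ASF omission as background.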
OC[C@H]1O[C@@]2(CCCN(c3cccc(Cl)c3)C2)[C@H](O)[C@@H](n2cc(-c3cc(F)c(F)c(F)c3)nn2)[C@H]1O [Compound A223, (2R,3R,4S,5R,6R)-8-(3-chlorophenyl)-2-(hydroxymethyl)-4-(4-(3,4,5-trifluorophenyl)-1H-1,2,3-triazol-1-yl)-1-oxa-8-azaspiro[5.5]undecane-3,5-diol] was tested, and the inhibition at 20 µM was less than 25%.
Work on OC[C@H]1O[C@@]2(CCCN(c3ccc(Cl)cc3)C2)[C@H](O)[C@@H](n2cc(-c3cc(F)c(F)c(F)c3)nn2)[C@H]1O [Compound A224, (2R,3R,4S,5R,6R)-8-(4-chlorophenyl)-2-(hydroxymethyl)-4-(4-(3,4,5-trifluorophenyl)-1H-1,2,3-triazol-1-yl)-1-oxa-8-azaspiro[5.5]undecane-3,5-diol] yielded an inhibition at 20 µM of less than 25%.
For OC[C@H]1O[C@@]2(CCCN(c3cccs3)C2)[C@H](O)[C@@H](n2cc(-c3cc(F)c(F)c(F)c3)nn2)[C@H]1O [Compound A225, (2R,3R,4S,5R,6R)-2-(hydroxymethyl)-8-(thiophen-2-yl)-4-(4-(3,4,5-trifluorophenyl)-1H-1,2,3-triazol-1-yl)-1-oxa-8-azaspiro[5.5]undecane-3,5-diol], the inhibition at 20 µM was less than 25%.
O=C(c1ccc(Cl)cc1)N1CCC[C@]2(C1)O[C@H](CO)[C@H](O)[C@H](n1cc(-c3cc(F)c(F)c(F)c3)nn1)[C@H]2O [Compound A227, (4-chlorophenyl)((2R,3R,4S,5R,6R)-3,5-dihydroxy-2-(hydroxymethyl)-4-(4-(3,4,5-trifluorophenyl)-1H-1,2,3-triazol-1-yl)-1-oxa-8-azaspiro[5.5]undecan-8-yl)methanone] gave an inhibition at 20 µM of less than 25%.
In the case of Cc1cc(C(=O)N[C@@H]2CCO[C@]23O[C@H](CO)[C@H](O)[C@H](n2cc(-c4cc(F)c(F)c(F)c4)nn2)[C@H]3O)c2cc(F)ccc2n1 [Compound A228, N-((4R,5S,7R,8R,9S,10R)-8,10-dihydroxy-7-(hydroxymethyl)-9-(4-(3,4,5-trifluorophenyl)-1H-1,2,3-triazol-1-yl)-1,6-dioxaspiro[4.5]decan-4-yl)-6-fluoro-2-methylquinoline-4-carboxamide], the inhibition at 20 µM is reported as greater than 75%.
Cc1cc(C(=O)N[C@@H]2CCO[C@]23O[C@H](CO)[C@H](O)[C@H](n2cc(-c4cc(F)c(F)c(F)c4)nn2)[C@H]3O)c2cc(Cl)ccc2n1 [Compound A229, 6-chloro-N-((4R,5S,7R,8R,9S,10R)-8,10-dihydroxy-7-(hydroxymethyl)-9-(4-(3,4,5-trifluorophenyl)-1H-1,2,3-triazol-1-yl)-1,6-dioxaspiro[4.5]decan-4-yl)-2-methylquinoline-4-carboxamide] was tested, and the inhibition at 20 µM was greater than 75%.
Compound O=C(N[C@@H]1CCO[C@]12O[C@H](CO)[C@H](O)[C@H](n1cc(-c3cc(F)c(F)c(F)c3)nn1)[C@H]2O)c1cccc2occc12 [Compound A230, N-((4R,5S,7R,8R,9S,10R)-8,10-dihydroxy-7-(hydroxymethyl)-9-(4-(3,4,5-trifluorophenyl)-1H-1,2,3-triazol-1-yl)-1,6-dioxaspiro[4.5]decan-4-yl)benzofuran-4-carboxamide] has an inhibition at 20 µM of 50 to 75%.
Cc1cc(C(=O)N[C@@H]2CCO[C@]23O[C@H](CO)[C@H](O)[C@H](n2cc(-c4cc(F)c(F)c(F)c4)nn2)[C@H]3O)c2cc(Br)ccc2n1 [Compound A231, 6-bromo-N-((4R,5S,7R,8R,9S,10R)-8,10-dihydroxy-7-(hydroxymethyl)-9-(4-(3,4,5-trifluorophenyl)-1H-1,2,3-triazol-1-yl)-1,6-dioxaspiro[4.5]decan-4-yl)-2-methylquinoline-4-carboxamide] showed an inhibition at 20 µM greater than 75%.
O=C(N[C@@H]1CCO[C@]12O[C@H](CO)[C@H](O)[C@H](n1cc(-c3cc(F)c(F)c(F)c3)nn1)[C@H]2O)c1c[nH]c2cccc(Cl)c12 [Compound A232, 4-chloro-N-((4R,5S,7R,8R,9S,10R)-8,10-dihydroxy-7-(hydroxymethyl)-9-(4-(3,4,5-trifluorophenyl)-1H-1,2,3-triazol-1-yl)-1,6-dioxaspiro[4.5]decan-4-yl)-1H-indole-3-carboxamide] gave an inhibition at 20 µM greater than 75%.
Cn1cc(C(=O)N[C@@H]2CCO[C@]23O[C@H](CO)[C@H](O)[C@H](n2cc(-c4cc(F)c(F)c(F)c4)nn2)[C@H]3O)c2cc(Cl)ccc21 [Compound A233, 5-chloro-N-((4R,5S,7R,8R,9S,10R)-8,10-dihydroxy-7-(hydroxymethyl)-9-(4-(3,4,5-trifluorophenyl)-1H-1,2,3-triazol-1-yl)-1,6-dioxaspiro[4.5]decan-4-yl)-1-methyl-1H-indole-3-carboxamide] gave an inhibition at 20 µM of 50 to 75%.
Work on Cc1sc2ccccc2c1C(=O)N[C@@H]1CCO[C@]12O[C@H](CO)[C@H](O)[C@H](n1cc(-c3cc(F)c(F)c(F)c3)nn1)[C@H]2O [Compound A234, N-((4R,5S,7R,8R,9S,10R)-8,10-dihydroxy-7-(hydroxymethyl)-9-(4-(3,4,5-trifluorophenyl)-1H-1,2,3-triazol-1-yl)-1,6-dioxaspiro[4.5]decan-4-yl)-2-methylbenzo[b]thiophene-3-carboxamide] yielded an inhibition at 20 µM greater than 75%.
For OC[C@H]1O[C@@]2(CCCO2)[C@H](O)[C@@H](n2cc(-c3cc(F)c(F)c(F)c3)cn2)[C@H]1O [Compound A237, (5S,7R,8R,9S,10R)-7-(hydroxymethyl)-9-(4-(3,4,5-trifluorophenyl)-1H-pyrazol-1-yl)-1,6-dioxaspiro[4.5]decane-8,10-diol], the inhibition at 20 µM was 25 to 50%.
In the case of O=C(N[C@@H]1CCO[C@]12O[C@H](CO)[C@H](O)[C@H](n1cc(-c3cc(F)c(F)c(F)c3)cn1)[C@H]2O)c1cccc2ccc(Cl)cc12 [Compound A238, 7-chloro-N-((4R,5S,7R,8R,9S,10R)-8,10-dihydroxy-7-(hydroxymethyl)-9-(4-(3,4,5-trifluorophenyl)-1H-pyrazol-1-yl)-1,6-dioxaspiro[4.5]decan-4-yl)-1-naphthamide], the inhibition at 20 µM is reported as greater than 75%.
Cc1cc(C(=O)N[C@@H]2CCO[C@]23O[C@H](CO)[C@H](O)[C@H](n2cc(-c4cc(F)c(F)c(F)c4)cn2)[C@H]3O)c2cc(Cl)ccc2n1 [Compound A239, 6-chloro-N-((4R,5S,7R,8R,9S,10R)-8,10-dihydroxy-7-(hydroxymethyl)-9-(4-(3,4,5-trifluorophenyl)-1H-pyrazol-1-yl)-1,6-dioxaspiro[4.5]decan-4-yl)-2-methylquinoline-4-carboxamide] showed an inhibition at 20 µM greater than 75%.
In the case of Cc1ccc2ccccc2c1C(=O)N[C@@H]1CCO[C@]12O[C@H](CO)[C@H](O)[C@H](n1cc(-c3cc(F)c(F)c(F)c3)nn1)[C@H]2O [Compound A240, N-((4R,5S,7R,8R,9S,10R)-8,10-dihydroxy-7-(hydroxymethyl)-9-(4-(3,4,5-trifluorophenyl)-1H-1,2,3-triazol-1-yl)-1,6-dioxaspiro[4.5]decan-4-yl)-2-methyl-1-naphthamide], the inhibition at 20 µM is reported as 50 to 75%.
Work on COc1cc(C(=O)N[C@@H]2CCO[C@]23O[C@H](CO)[C@H](O)[C@H](n2cc(-c4cc(F)c(F)c(F)c4)nn2)[C@H]3O)c2ccccc2c1 [Compound A241, N-((4R,5S,7R,8R,9S,10R)-8,10-dihydroxy-7-(hydroxymethyl)-9-(4-(3,4,5-trifluorophenyl)-1H-1,2,3-triazol-1-yl)-1,6-dioxaspiro[4.5]decan-4-yl)-3-methoxy-1-naphthamide] yielded an inhibition at 20 µM greater than 75%.
In the case of COc1ccc2ccccc2c1C(=O)N[C@@H]1CCO[C@]12O[C@H](CO)[C@H](O)[C@H](n1cc(-c3cc(F)c(F)c(F)c3)nn1)[C@H]2O [Compound A242, N-((4R,5S,7R,8R,9S,10R)-8,10-dihydroxy-7-(hydroxymethyl)-9-(4-(3,4,5-trifluorophenyl)-1H-1,2,3-triazol-1-yl)-1,6-dioxaspiro[4.5]decan-4-yl)-2-methoxy-1-naphthamide], the inhibition at 20 µM is reported as 50 to 75%.
For Cc1ccc(C(=O)N[C@@H]2CCO[C@]23O[C@H](CO)[C@H](O)[C@H](n2cc(-c4cc(F)c(F)c(F)c4)nn2)[C@H]3O)c2ccccc12 [Compound A243, N-((4R,5S,7R,8R,9S,10R)-8,10-dihydroxy-7-(hydroxymethyl)-9-(4-(3,4,5-trifluorophenyl)-1H-1,2,3-triazol-1-yl)-1,6-dioxaspiro[4.5]decan-4-yl)-4-methyl-1-naphthamide], the inhibition at 20 µM was greater than 75%.
Work on O=C(N[C@@H]1CCO[C@]12O[C@H](CO)[C@H](O)[C@H](n1cc(-c3cc(F)c(F)c(F)c3)nn1)[C@H]2O)c1cccc2cccnc12 [Compound A244, N-((4R,5S,7R,8R,9S,10R)-8,10-dihydroxy-7-(hydroxymethyl)-9-(4-(3,4,5-trifluorophenyl)-1H-1,2,3-triazol-1-yl)-1,6-dioxaspiro[4.5]decan-4-yl)quinoline-8-carboxamide] yielded an inhibition at 20 µM of 50 to 75%.
Cc1cc(C(=O)N[C@@H]2CCO[C@]23O[C@H](CO)[C@H](O)[C@H](n2cc(-c4cc(F)c(F)c(F)c4)nn2)[C@H]3O)c2cccnc2c1 [Compound A245, N-((4R,5S,7R,8R,9S,10R)-8,10-dihydroxy-7-(hydroxymethyl)-9-(4-(3,4,5-trifluorophenyl)-1H-1,2,3-triazol-1-yl)-1,6-dioxaspiro[4.5]decan-4-yl)-7-methylquinoline-5-carboxamide] showed an inhibition at 20 µM greater than 75%.

Same assay, conditions: Table 3, found values; compound at 20 μM; 60 nM his-galectin-3, 15 nM biotin-ASF; read-out: % Inhibitory activity (at 20 μM)
In the case of OC[C@H]1O[C@@]2(CCCN(c3ccc(Cl)cc3)C2)[C@H](O)[C@@H](n2cc(-c3cc(F)c(F)c(F)c3)nn2)[C@H]1O [Compound A224, (2R,3R,4S,5R,6R)-8-(4-chlorophenyl)-2-(hydroxymethyl)-4-(4-(3,4,5-trifluorophenyl)-1H-1,2,3-triazol-1-yl)-1-oxa-8-azaspiro[5.5]undecane-3,5-diol], the inhibition at 20 µM is reported as 24.2%.
Work on O=C(N[C@@H]1CCO[C@]12O[C@H](CO)[C@H](O)[C@H](n1cc(-c3cc(F)c(F)c(F)c3)nn1)[C@H]2O)c1cccc2occc12 [Compound A230, N-((4R,5S,7R,8R,9S,10R)-8,10-dihydroxy-7-(hydroxymethyl)-9-(4-(3,4,5-trifluorophenyl)-1H-1,2,3-triazol-1-yl)-1,6-dioxaspiro[4.5]decan-4-yl)benzofuran-4-carboxamide] yielded an inhibition at 20 µM of 66.5%.
Compound Cc1ccc2ccccc2c1C(=O)N[C@@H]1CCO[C@]12O[C@H](CO)[C@H](O)[C@H](n1cc(-c3cc(F)c(F)c(F)c3)nn1)[C@H]2O [Compound A240, N-((4R,5S,7R,8R,9S,10R)-8,10-dihydroxy-7-(hydroxymethyl)-9-(4-(3,4,5-trifluorophenyl)-1H-1,2,3-triazol-1-yl)-1,6-dioxaspiro[4.5]decan-4-yl)-2-methyl-1-naphthamide] has an inhibition at 20 µM of 72.1%.

Same assay, conditions: read-out: % Inhibitory activity (at 20 μM), Table 2; compound at 20 μM; 60 nM his-galectin-3, 15 nM biotin-ASF
Compound OC[C@H]1O[C@@]2(CCCN(c3ccncn3)C2)[C@H](O)[C@@H](n2cc(-c3cc(F)c(F)c(F)c3)nn2)[C@H]1O [Compound A226, (2R,3R,4S,5R,6R)-2-(hydroxymethyl)-8-(pyrimidin-4-yl)-4-(4-(3,4,5-trifluorophenyl)-1H-1,2,3-triazol-1-yl)-1-oxa-8-azaspiro[5.5]undecane-3,5-diol] has an inhibition at 20 µM of less than 25%.
